Reference: patent US5583108A, “Vasonatrin peptide and analogs thereof” (Mayo Foundation for Medical Education and Research, priority 1994, dated 1996)

Key:
normal rats = assay: Cardiorenal actions after intravenous bolus in anesthetized normal rats; format: in vivo, Wistar rats; conditions: for MAP mean arterial pressure / HR heart rate / RAP right atrial pressure / UKV urine potassium excretion / UNaV urine sodium excretion / UV urine volume / UcGMPV urine cGMP volume / PcGMP plasma cGMP: mean ± SEM; for MAP mean arterial pressure: n = 4
Experimental: (§1) The results obtained are expressed as the means ±SEM. In organ chamber studies, n equals the number of dogs from which rings were taken. Rings with and without endothelium were studied in parallel, and Student's t-test for unpaired observations was used to determine statistical significance among the responses of rings with and without endothelium and between responses of arteries and veins. In rat studies, the data were analyzed using ANOVA for repeated measures followed by Fisher's least significant difference test when appropriate within the group. Data between groups were analyzed by Student's unpaired t-test. Statistical significance was determined at p<0.05.
Experiments were conducted in accordance with the Animal Welfare Act. Wistar rats and spontaneously hypertensive rats (SHR) (400 g; Harlan Sprague-Dawley, Indianapolis, Ind.) were anesthetized with Inactin (100 mg/kg; intraperitoneal; BYK Gulden, Konstanz, Germany). The body temperature was maintained between 36° and 38° C. by a heating pad. Tracheostomy was performed; however, the animals were not artificially ventilated. Polyethylene catheters (PE-50; Becton Dickinson Co., Parsippany, N.J.) were placed in the left Jugular vein for infusions of saline and drugs, in the right jugular vein to right atrium to monitor right atrial pressure, and in the carotid artery for the collection of blood samples and to monitor mean arterial pressure. A PE-90 catheter was placed in the bladder for urine collection.
Experiments were conducted in three groups in normal rats: ANP group (n=4), CNP group (n=4), and VNP group (n=4). VNP also was studied in SHR rats (n=4). Intravenous infusions of saline solution (0.9% NaCl) were performed (1 ml/100 gm body weight/hr) through the left jugular vein catheter. After completion of surgery, rats were allowed to stabilize for 30 minutes. In each group, a 15-min baseline period followed. After the baseline period, saline solution (0.9% NaCl) was administered in a bolus fashion (0.1 ml) and was followed by a 15-min period. After the saline period, the peptide (ANP, CNP or VNP) was administered in a bolus fashion (0.1 ml) at 5 μg/kg which was followed by a 15-min period. This was followed by a second bolus (0.1 ml) at 50 μg/kg and a 15-min period. After a 30-min washout, a 15-min recovery period followed. During each experimental period, mean arterial pressure (MAP), heart rate (HR), and right atrial pressure (RAP) were measured. At the midpoint of baseline, second bolus fashion (50 μg/kg) and recovery periods, blood was sampled for plasma cGMP. At the end of each period, urine was measured for volume (UV), and samples were stored for electrolytes and cGMP analysis.
Blood for plasma cGMP analysis was collected into EDTA tubes, immediately placed on ice, and centrifuged at […] at 4° C. Plasma was separated and stored at -20° C. until assay. Urine for cGMP determination was heated to >90° C. before storage. Plasma and urine cGMP were determined by a specific RIA as previously described by A. L. Steiner et al., J. Hypertension, 5 (Suppl. 5) 551-553 (1987).

[1] = system: isolated normal canine blood vessels; assay: Organ chamber isometric force: relaxation of phenylephrine-contracted vessel rings; set-up: species or system dog; conditions: for relaxation: maximal dose (3×10^-6 M); for maximal response, percent change in tension from a contraction to phenylephrine: peptide 3 × 10^-6 M, mean ± SEM
Experimental: as §1
Rings cut from femoral, saphenous, renal and pulmonary arteries and veins obtained from random source mongrel dogs (anesthetized with 30 mg/kg pentobarbital sodium intravenously) were suspended for the measurement of isometric force in organ chambers filled with aerated (95% O2 and 5% CO2) modified Krebs-Ringer bicarbonate solution (composition in mM: 118.3 NaCl, 4.7 KCl, 2.5 CaCl2, 1.2 MgSO4, 1.2 KH2 PO4, 25.0 NaHCO3, 0.026 calcium sodium EDTA, and 11.1 dextrose; control solution) at 37° C. In one-half rings, the endothelium was removed by gently rubbing the intimal surface with a cotton swab wetted with control solution. Each ring was stretched to the optimal point on its length-tension curve as determined by the tension developed to norepinephrine (3×10^-7 M) at each level of stretch. The presence of endothelium was determined at the beginning of the experiment by a relaxation to acetylcholine (10^-6 M) during a contraction to norepinephrine at optimal length. The maximal tension of each ring was determined by norepinephrine (10^-4 M). To study responses to ANP, CNP and VNP, the rings were contracted with phenylephrine (10^-6 M). These contractions averaged 30-40% of the maximal contraction to norepinephrine. The peptides were added cumulatively once the contraction had stabilized.
The following commercially available drugs were used: acetylcholine chloride (Sigma Chemical, St. Louis, Mo.), human ANP and human CNP (Peninsula Laboratories, Belmont, Calif.), L-norepinephrine bitartrate (Sigma), phenylephrine bitartrate (Sigma). All drugs were dissolved in distilled water immediately prior to study, and the concentrations are reported as the final molar concentration (M) in the organ chamber.

[2] = normal rats, high dose (50 μg/kg) bolus

CC[C@H](C)[C@@H]1NC(=O)[C@H](CCCNC(=N)N)NC(=O)[C@H](CC(=O)O)NC(=O)[C@H](CCSC)NC(=O)[C@H](CCCNC(=N)N)NC(=O)CNC(=O)CNC(=O)[C@H](Cc2ccccc2)NC(=O)[C@@H](NC(=O)[C@H](CO)NC(=O)[C@H](CO)NC(=O)[C@H](CCCNC(=N)N)NC(=O)[C@H](CCCNC(=N)N)NC(=O)[C@H](CC(C)C)NC(=O)[C@@H](N)CO)CSSC[C@@H](C(=O)N[C@@H](CC(N)=O)C(=O)N[C@@H](CO)C(=O)N[C@@H](Cc2ccccc2)C(=O)N[C@@H](CCCNC(=N)N)C(=O)N[C@@H](Cc2ccc(O)cc2)C(=O)O)NC(=O)CNC(=O)[C@H](CC(C)C)NC(=O)CNC(=O)[C@H](CO)NC(=O)[C@H](CCC(N)=O)NC(=O)[C@H](C)NC(=O)CNC1=O [ANP, atrial natriuretic peptide]
natriuretic action (in words) (normal rats; in vivo, rat): potent natriuretic | change in MAP and RAP (in words) (normal rats; [2]): significant decrease | change in urine flow, sodium excretion, plasma cGMP and urinary cGMP volume (in words) (normal rats; [2]): increased | MAP mean arterial pressure (normal rats; normal rats, iv bolus 5 μg/kg, 15-min period): 97 ± 12 mmHg | HR heart rate (normal rats; normal rats, iv bolus 5 μg/kg): 353 ± 14 beats/min | RAP right atrial pressure (normal rats; normal rats, iv bolus 5 μg/kg): -2.3 ± 0.8 mmHg | UKV urine potassium excretion (normal rats; normal rats, iv bolus 5 μg/kg): 10.3 ± 3.5 µmol/min | UNaV urine sodium excretion (normal rats; normal rats, iv bolus 5 μg/kg): 13.2 ± 3.5 µmol/min | UV urine volume (normal rats; normal rats, iv bolus 5 μg/kg): 79 ± 10 µL/min | UcGMPV urine cGMP volume (normal rats; normal rats, iv bolus 5 μg/kg): 605 ± 151 pmol/min | HR heart rate (normal rats; normal rats, iv bolus 50 μg/kg): 355 ± 19 beats/min | PcGMP plasma cGMP (normal rats; normal rats, iv bolus 50 μg/kg): 25.7 ± 7.1 pmol/mL | RAP right atrial pressure (normal rats; normal rats, iv bolus 50 μg/kg): -3.8 ± 0.8 mmHg | UKV urine potassium excretion (normal rats; normal rats, iv bolus 50 μg/kg): 24.4 ± 8.7 µmol/min | UNaV urine sodium excretion (normal rats; normal rats, iv bolus 50 μg/kg): 68.2 ± 15.7 µmol/min | UV urine volume (normal rats; normal rats, iv bolus 50 μg/kg): 341 ± 41 µL/min | UcGMPV urine cGMP volume (normal rats; normal rats, iv bolus 50 μg/kg): 2580 ± 505 pmol/min | MAP mean arterial pressure (normal rats; normal rats, recovery period after 30-min washout): 92 ± 11 mmHg | HR heart rate (normal rats; normal rats, recovery period): 368 ± 23 beats/min | PcGMP plasma cGMP (normal rats; normal rats, recovery period): 3.2 ± 0.3 pmol/mL | RAP right atrial pressure (normal rats; normal rats, recovery period): -0.8 ± 0.9 mmHg | UKV urine potassium excretion (normal rats; normal rats, recovery period): 2.4 ± 0.1 µmol/min | UNaV urine sodium excretion (normal rats; normal rats, recovery period): 8.9 ± 3.5 µmol/min | UV urine volume (normal rats; normal rats, recovery period): 48 ± 14 µL/min | UcGMPV urine cGMP volume (normal rats; normal rats, recovery period): 105 ± 63 pmol/min | MAP mean arterial pressure (normal rats; normal rats, second iv bolus 50 μg/kg, 15-min period): 69 ± 7 mmHg | relaxation ([1]; femoral and saphenous arteries): no effects | maximal response, percent change in tension from a contraction to phenylephrine ([1]; femoral artery, with endothelium, phenylephrine 10^-6 M): 10 ± 5% | maximal response, percent change in tension from a contraction to phenylephrine ([1]; femoral artery, without endothelium): 19 ± 12% | maximal response, percent change in tension from a contraction to phenylephrine ([1]; femoral vein, with endothelium): 6 ± 3% | maximal response, percent change in tension from a contraction to phenylephrine ([1]; femoral vein, without endothelium): 4 ± 4% | relaxation ([1]; femoral veins): no effect | maximal response, percent change in tension from a contraction to phenylephrine ([1]; pulmonary artery, with endothelium): 60 ± 7% | maximal response, percent change in tension from a contraction to phenylephrine ([1]; pulmonary artery, without endothelium): 75 ± 8% | maximal response, percent change in tension from a contraction to phenylephrine ([1]; pulmonary vein, with endothelium): 49 ± 5% | maximal response, percent change in tension from a contraction to phenylephrine ([1]; pulmonary vein, without endothelium): 16 ± 3% | maximal response, percent change in tension from a contraction to phenylephrine ([1]; renal artery, with endothelium): 27 ± 6% | maximal response, percent change in tension from a contraction to phenylephrine ([1]; renal artery, without endothelium): 30 ± 6% | maximal response, percent change in tension from a contraction to phenylephrine ([1]; renal vein, with endothelium): 12 ± 3% | maximal response, percent change in tension from a contraction to phenylephrine ([1]; renal vein, without endothelium): 11 ± 4% | maximal response, percent change in tension from a contraction to phenylephrine ([1]; saphenous artery, with endothelium): 0 ± 0% | maximal response, percent change in tension from a contraction to phenylephrine ([1]; saphenous artery, without endothelium): 3 ± 3% | maximal response, percent change in tension from a contraction to phenylephrine ([1]; saphenous vein, with endothelium): 0 ± 0% | maximal response, percent change in tension from a contraction to phenylephrine ([1]; saphenous vein, without endothelium): 0 ± 0% | relaxation ([1]; saphenous veins): no effect | relaxation, % of the contraction to phenylephrine ([1]; systemic arteries (femoral, saphenous and renal)): less than 30%
